Measurements as given in patent US20230146455A1, “TREATMENT OF INFLAMMATORY DISEASES WITH PEPTIDES AND PHARMACEUTICAL COMPOSITIONS” (Yuyu Pharma, Inc., priority 2020, published 2023).
Where “and” joins values, the source holds several entries; their conditions need not be identical. Identical values can stand only once. Where a SMILES comes first, the peptide text is derived from it. [ ]: non-standard residue; d: D form. Hyp = O=C(O)[C@@H]1C[C@@H](O)CN1

Key:
IL-4 = experiment: Example 9 Luminex, LPS hPBMCs: IL-4; assay type: cell-based, human
Protocol: (§1) Treatment Human PBMCs were pretreated with YY-101, YDE-011 and YDE-043 or reference compound; Xiidra® at various concentration (ranging from 1 nM to 100 uM) for 2 h before stimulation. An equal volume of 0.5% DMSO was used as a vehicle control. Then, the cells were treated with LPS at 5 ug/ml. The supernatants from treated cells were harvested at 24 h and placed in a 96 well for Luminex cytokine & chemokine profiling using a Luminex 200 multiplex assay (Luminex; R&D system, USA).
(§2) The main study arm with triplicate wells per group in a 24-well plate: • 1. Blank • 2. PBMC: 0.5% DMSO • 3. PBMC+LPS (5 ug/ml) • 4. PBMC+YY-101 100 uM • 5. PBMC+YY-101 10 uM • 6. PBMC+YY-101 1 uM • 7. PBMC+YY-101 0.1 uM • 8. PBMC+YY-101 0.01 uM • 9. PBMC+LPS (5 ug/ml)+Xiidra®100 uM • 10. PBMC+LPS (5 ug/ml)+Xiidra® 10 uM • 11. PBMC+LPS (5 ug/ml)+Xiidra® 1 uM • 12. PBMC+LPS (5 ug/ml)+Xiidra®0.1 uM • 13. PBMC+LPS (5 ug/ml)+Xiidra®0.01 uM • 14. PBMC+LPS (5 ug/ml)+Xiidra®0.001 uM • 15. PBMC+LPS (5 ug/ml)+YY-101 100 uM • 16. PBMC+LPS (5 ug/ml)+YY-101 10 uM • 17. PBMC+LPS (5 ug/ml)+YY-101 1 uM • 18. PBMC+LPS (5 ug/ml)+YY-101 0.1 uM • 19. PBMC+LPS (5 ug/ml)+YY-101 0.01 uM • 20. PBMC+LPS (5 ug/ml)+YY-101 0.001 uM • 21. PBMC+LPS (5 ug/ml)+YDE-011 100 uM • 22. PBMC+LPS (5 ug/ml)+YDE-011 10 uM • 23. PBMC+LPS (5 ug/ml)+YDE-011 1 uM • 24. PBMC+LPS (5 ug/ml)+YDE-011 0.1 uM • 25. PBMC+LPS (5 ug/ml)+YDE-011 0.01 uM • 26. PBMC+LPS (5 ug/ml)+YDE-011 0.001 uM • 27. PBMC+LPS (5 ug/ml)+YDE-043 100 uM • 28. PBMC+LPS (5 ug/ml)+YDE-043 10 uM • 29. PBMC+LPS (5 ug/ml)+YDE-043 1 uM • 30. PBMC+LPS (5 ug/ml)+YDE-043 0.1 uM • 31. PBMC+LPS (5 ug/ml)+YDE-043 0.01 uM • 32. PBMC+LPS (5 ug/ml)+YDE-043 0.001 uM
(§3) Multiplex assay was used to measure 30 cytokines and chemokines. The 1:2, 1:10 and 1:200 diluted cell supernatant and serial dilution of the standard were dispensed into a 96 well plate at 50 ul/well. Then, the pre-mixed cocktail of antibody-coated magnetic beads was dispensed at 50 ul/well and incubated at room temperature for 2 h in a horizontal orbital microplate shaker at 800±500 rpm. The beads were washed using a magnetic device to prevent loss. The biotin-antibody was dispensed in 50 ul of each well and incubated at room temperature for 1 h in a shaker at 800±500 rpm. After washing, streptavidin-PE was added at 50 ul/well and incubated at room temperature for 30 min in a shaker under the same conditions. Finally, after washing, wash buffer (100 ul/well) was added to the plate and incubated in a shaker for 2 min. The Luminex™ 200 setting were set according to the manufacturer's protocol. The data was calculated with a standard five-parameter logistic nonlinear regression analysis of the data (xPonent software 4.2, USA). The levels of cytokine/chemokine are normalized to the live cell counts (1×10^5 cells/mL) and presented as concentrations per mL (pg/mL or ng/mL).

CCL3/MIP-1 alpha = experiment: Example 9 Luminex, LPS hPBMCs: CCL3/MIP-1 alpha; assay type: cell-based, human
Protocol: as §1, §2, §3

[1] = PBMC + LPS(5 ug/ml) + test article 0.001 uM, Mean
[2] = PBMC + LPS(5 ug/ml) + test article 0.001 uM, single replicates
[3] = PBMC + LPS(5 ug/ml) + test article 0.01 uM, Mean
[4] = PBMC + LPS(5 ug/ml) + test article 0.01 uM, single replicates
[5] = PBMC + LPS(5 ug/ml) + test article 0.1 uM, Mean
[6] = PBMC + LPS(5 ug/ml) + test article 0.1 uM, single replicates
[7] = PBMC + LPS(5 ug/ml) + test article 1 uM, Mean
[8] = PBMC + LPS(5 ug/ml) + test article 1 uM, single replicates
[9] = PBMC + LPS(5 ug/ml) + test article 10 uM, Mean
[10] = PBMC + LPS(5 ug/ml) + test article 10 uM, single replicates
[11] = PBMC + LPS(5 ug/ml) + test article 100 uM, Mean
[12] = PBMC + LPS(5 ug/ml) + test article 100 uM, single replicates
[13] = PBMC + LPS(5 ug/ml) + test article 0.001 uM, individual replicates
[14] = PBMC + LPS(5 ug/ml) + test article 0.01 uM, individual replicates
[15] = PBMC + LPS(5 ug/ml) + test article 0.1 uM, individual replicates
[16] = PBMC + LPS(5 ug/ml) + test article 1 uM, individual replicates
[17] = PBMC + LPS(5 ug/ml) + test article 10 uM, individual replicates
[18] = PBMC + LPS(5 ug/ml) + test article 100 uM, individual replicates

Structure (SMILES): CC(C)C[C@H](NC(=O)[C@H](CCC(N)=O)NC(=O)CNC(=O)[C@@H]1C[C@@H](O)CN1)C(=O)NCC(=O)O [YDE-043] (H-[Hyp]GQLG-OH; N-terminus and C-terminus assumed)
- Concentration, Bead name: IL-4 (IL-4; [1]): 26.0 pg/mL
- MFI, Bead name: IL-4 (IL-4; [1]): 1.0
- conc/live cell, Bead name: IL-4 (IL-4; [1]): 5.2 pg/10^5
- Concentration, Bead name: IL-4 (IL-4; [2]): 26.4 pg/mL and 33.2 pg/mL and 18.4 pg/mL
- MFI, Bead name: IL-4 (IL-4; [2]): 1.0 and 2.0 and 0.0
- conc/live cell, Bead name: IL-4 (IL-4; [2]): 6.0 pg/10^5 and 5.5 pg/10^5 and 4.0 pg/10^5
- Concentration, Bead name: IL-4 (IL-4; [3]): 11.3 pg/mL
- MFI, Bead name: IL-4 (IL-4; [3]): −0.7
- conc/live cell, Bead name: IL-4 (IL-4; [3]): 2.2 pg/10^5
- Concentration, Bead name: IL-4 (IL-4; [4]): 7.7 pg/ml (2×) and 18.4 pg/ml
- MFI, Bead name: IL-4 (IL-4; [4]): −1.0 (2×) and 0.0
- conc/live cell, Bead name: IL-4 (IL-4; [4]): 1.7 pg/10^5 and 1.2 pg/10^5 and 3.7 pg/10^5
- Concentration, Bead name: IL-4 (IL-4; [5]): 17.5 pg/mL
- MFI, Bead name: IL-4 (IL-4; [5]): 0.0
- conc/live cell, Bead name: IL-4 (IL-4; [5]): 3.3 pg/10^5
- Concentration, Bead name: IL-4 (IL-4; [6]): 26.4 pg/mL and 18.4 pg/mL and 7.7 pg/mL
- MFI, Bead name: IL-4 (IL-4; [6]): 1.0 and 0.0 and −1.0
- conc/live cell, Bead name: IL-4 (IL-4; [6]): 5.3 pg/10^5 and 3.3 pg/10^5 and 1.4 pg/10^5
- Concentration, Bead name: IL-4 (IL-4; [7]): 26.4 pg/mL
- MFI, Bead name: IL-4 (IL-4; [7]): 0.2
- conc/live cell, Bead name: IL-4 (IL-4; [7]): 3.5 pg/10^5
- Concentration, Bead name: IL-4 (IL-4; [8]): 26.4 pg/mL
- MFI, Bead name: IL-4 (IL-4; [8]): −1.5 and 1.0 (2×)
- conc/live cell, Bead name: IL-4 (IL-4; [8]): 0.0 pg/10^5 and 5.5 pg/10^5 and 5.0 pg/10^5
- Concentration, Bead name: IL-4 (IL-4; [9]): 14.8 pg/mL
- MFI, Bead name: IL-4 (IL-4; [9]): −0.3
- conc/live cell, Bead name: IL-4 (IL-4; [9]): 2.7 pg/10^5
- Concentration, Bead name: IL-4 (IL-4; [10]): 18.4 pg/ml (2×) and 7.7 pg/ml
- MFI, Bead name: IL-4 (IL-4; [10]): 0.0 (2×) and −1.0
- conc/live cell, Bead name: IL-4 (IL-4; [10]): 3.5 pg/10^5 and 1.4 pg/10^5 and 3.3 pg/10^5
- Concentration, Bead name: IL-4 (IL-4; [11]): 7.7 pg/mL
- MFI, Bead name: IL-4 (IL-4; [11]): −1.0
- conc/live cell, Bead name: IL-4 (IL-4; [11]): 1.2 pg/10^5
- Concentration, Bead name: IL-4 (IL-4; [12]): 7.7 pg/mL
- MFI, Bead name: IL-4 (IL-4; [12]): −1.0
- conc/live cell, Bead name: IL-4 (IL-4; [12]): 1.2 pg/10^5
- Concentration (CCL3/MIP-1 alpha; [1]): 7935.0 pg/mL
- conc/live cell (CCL3/MIP-1 alpha; [1]): 1611.4 pg/10^5
- Concentration (CCL3/MIP-1 alpha; [13]): 7637.9 pg/mL and 8204.6 pg/mL and 7962.5 pg/mL
- conc/live cell (CCL3/MIP-1 alpha; [13]): 1735.9 pg/10^5 and 1367.4 pg/10^5 and 1731.0 pg/10^5
- Concentration (CCL3/MIP-1 alpha; [3]): 7883.4 pg/mL
- conc/live cell (CCL3/MIP-1 alpha; [3]): 1505.4 pg/10^5
- Concentration (CCL3/MIP-1 alpha; [14]): 7796.2 pg/mL and 7985.9 pg/mL and 7868.0 pg/mL
- conc/live cell (CCL3/MIP-1 alpha; [14]): 1732.5 pg/10^5 and 1210.0 pg/10^5 and 1573.6 pg/10^5
- Concentration (CCL3/MIP-1 alpha; [5]): 7645.0 pg/mL
- conc/live cell (CCL3/MIP-1 alpha; [5]): 1418.9 pg/10^5
- Concentration (CCL3/MIP-1 alpha; [15]): 7513.4 pg/mL and 7625.5 pg/mL and 7796.2 pg/mL
- conc/live cell (CCL3/MIP-1 alpha; [15]): 1502.7 pg/10^5 and 1361.7 pg/10^5 and 1392.2 pg/10^5
- Concentration (CCL3/MIP-1 alpha; [7]): 7636.6 pg/mL
- conc/live cell (CCL3/MIP-1 alpha; [7]): 1442.9 pg/10^5
- Concentration (CCL3/MIP-1 alpha; [16]): 7962.5 pg/mL and 6891.7 pg/mL and 8055.7 pg/mL
- conc/live cell (CCL3/MIP-1 alpha; [16]): 1372.8 pg/10^5 and 1435.8 pg/10^5 and 1520.0 pg/10^5
- Concentration (CCL3/MIP-1 alpha; [9]): 7606.3 pg/mL
- conc/live cell (CCL3/MIP-1 alpha; [9]): 1409.0 pg/10^5
- Concentration (CCL3/MIP-1 alpha; [17]): 7500.8 pg/mL and 7450.2 pg/mL and 7868.0 pg/mL
- conc/live cell (CCL3/MIP-1 alpha; [17]): 1442.5 pg/10^5 and 1379.7 pg/10^5 and 1405.0 pg/10^5
- Concentration (CCL3/MIP-1 alpha; [11]): 7769.2 pg/mL
- conc/live cell (CCL3/MIP-1 alpha; [11]): 1234.0 pg/10^5
- Concentration (CCL3/MIP-1 alpha; [18]): 7962.5 pg/mL and 7575.9 pg/mL
- conc/live cell (CCL3/MIP-1 alpha; [18]): 1284.3 pg/10^5 and 1183.7 pg/10^5
